Laboratory results from ChEMBL document CHEMBL1149441, “Cyclopropylamino acid amide as a pharmacophoric replacement for 2,3-diaminopyridine. Application to the design of novel bradykinin B1 receptor antagonists” (J Med Chem, 2006).

Assays:
B2 bradykinin receptor = target: T1, B2 bradykinin receptor (Homo sapiens, UniProt P30411); assay: Binding affinity to bradykinin B2 receptor
T1 sequence (P30411 whole entry): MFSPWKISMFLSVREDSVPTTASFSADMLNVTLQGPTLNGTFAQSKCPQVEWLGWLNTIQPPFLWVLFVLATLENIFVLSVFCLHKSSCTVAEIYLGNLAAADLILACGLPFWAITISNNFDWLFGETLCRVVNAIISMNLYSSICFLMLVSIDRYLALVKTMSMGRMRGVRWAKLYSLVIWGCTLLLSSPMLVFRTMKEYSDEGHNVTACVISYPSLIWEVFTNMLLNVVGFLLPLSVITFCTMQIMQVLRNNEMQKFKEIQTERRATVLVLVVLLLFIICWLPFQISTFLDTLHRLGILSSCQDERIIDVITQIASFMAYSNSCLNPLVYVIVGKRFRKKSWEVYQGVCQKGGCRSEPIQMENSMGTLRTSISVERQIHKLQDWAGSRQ

[1] = Half life in iv dosed rat; type: ADME, organism-based; details: in vivo
B1 bradykinin receptor = target: T2, B1 bradykinin receptor (Homo sapiens, UniProt P46663); assay: Binding affinity to human bradykinin B1 receptor expressed in CHO cells; type: cell-based
T2 sequence (P46663 whole entry): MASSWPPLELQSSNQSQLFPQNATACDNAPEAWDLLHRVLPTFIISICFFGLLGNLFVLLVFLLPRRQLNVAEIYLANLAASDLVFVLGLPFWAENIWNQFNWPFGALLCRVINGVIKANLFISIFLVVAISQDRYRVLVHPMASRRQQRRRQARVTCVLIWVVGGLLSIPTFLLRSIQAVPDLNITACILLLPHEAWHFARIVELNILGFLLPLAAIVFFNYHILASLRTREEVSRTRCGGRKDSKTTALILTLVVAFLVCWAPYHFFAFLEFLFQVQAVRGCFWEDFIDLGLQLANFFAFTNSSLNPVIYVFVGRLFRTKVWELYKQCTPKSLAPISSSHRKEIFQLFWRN

[2] = Oral bioavailability in rat; type: ADME, organism-based; details: in vivo
[3] = Clearance in iv dosed rat; type: ADME, organism-based; details: in vivo

Ki (B2 bradykinin receptor) [µM]	half-life [1] [h]	Ki (B1 bradykinin receptor) [µM]	bioavailability [2] [%]	clearance [3] [mL/min/kg]	SMILES
> 10	0.15				COC(=O)c1ccccc1-c1ccc(CNc2ncccc2NC(=O)CC(F)(F)F)cc1
> 10		0.0018			COC(=O)c1ccccc1-c1ccc(CNC(=O)C2(NC(=O)c3cncc(C(F)(F)F)c3)CC2)cc1
> 10	12	0.752	25	2.6	COC(=O)c1ccccc1-c1ccc(CNC(=O)C2(NC(=O)CC(F)(F)F)CCCCC2)cc1
> 10		0.462			COC(=O)c1ccccc1-c1ccc(CNC(=O)C2(NC(=O)CC(F)(F)F)CCCC2)cc1
> 10		1.58			COC(=O)c1ccccc1-c1ccc(CNC(=O)[C@@H](C)NC(=O)CC(F)(F)F)cc1
> 10	6.6		35	4.2	COC(=O)c1ccccc1-c1ccc(CNC(=O)C(C)(C)NC(=O)CC(F)(F)F)cc1
> 10	9.5		26	9.3	COC(=O)c1ccccc1-c1ccc(CNC(=O)C2(NC(=O)CC(F)(F)F)CC2)cc1
> 10		0.0255			COC(=O)c1ccccc1-c1ccc(CNC(=O)C2(NC(=O)c3cncnc3)CC2)cc1
> 10		52			COC(=O)c1ccccc1-c1ccc(CNC(=O)CNC(=O)CC(F)(F)F)cc1
> 10		0.119			COC(=O)c1ccccc1-c1ccc(CNC(=O)C2(NC(=O)CC(F)(F)F)CCC2)cc1
> 10		> 50			COC(=O)c1ccccc1-c1ccc(CNC(=O)[C@H](C)NC(=O)CC(F)(F)F)cc1
